Data: PMC4216168, “Ligand Binding and Activation of PPARγ by Firemaster® 550: Effects on Adipogenesis and Osteogenesis in Vitro” (Environmental Health Perspectives, 2014)
Read-outs that look alike come from different tables or passages of the source.

Legend:
[1] = system: PPARγ; parameters: method as in Springer et al. 2012; conditions: in vitro; ref Springer et al. 2012; cited from earlier work
[2] = system: PPARα; parameters: method as in Springer et al. 2012; conditions: in vitro; ref Springer et al. 2012; cited from earlier work
[3] = system: NIH 3T3L1 cells; parameters: method as in Springer et al. 2012; conditions: ref Springer et al. 2012; cited from earlier work
[4] = system: glucocorticoid receptor; parameters: method as in earlier work; conditions: ref Honkakoski et al. 2004; Kojima et al. 2013; Suzuki et al. 2013; cited from earlier work
[5] = system: progesterone receptor; parameters: method as in earlier work; conditions: ref Honkakoski et al. 2004; Kojima et al. 2013; Suzuki et al. 2013; cited from earlier work
[6] = system: BMS2 cells; test: Necrosis by dead cell protease release (CytoTox-Glo) in BMS2 cultures; conditions: 12 days; as high as 10 μg/mL (20 μM) FM550 or 20 μM TPP
Protocol: (§1) Cell viability assays. […] Apoptosis and necrosis were assessed by caspase-3 activity (Caspase-Glo® 3/7 Assay; Promega) and dead cell protease release (CytoTox-Glo™ Cytotoxicity Assay; Promega), respectively, according to the manufacturer’s instructions.

[7] = system: BMS2 cells; test: Lipid accumulation (Nile red) in BMS2 cells
[8] = system: primary mouse bone marrow cultures; test: Lipid accumulation (Nile red) in primary bone marrow cultures under osteogenic induction; conditions: 12 days, molar value of FM550 estimated
[9] = system: Fabp4 mRNA in primary mouse bone marrow cultures; test: Fabp4 mRNA expression (qPCR) in primary bone marrow cultures; assay type: cell-based; conditions: 7 days
Protocol: (§2) mRNA expression. Total RNA was extracted, and genomic DNA was removed using the RNeasy Plus Mini Kit (QIAGEN, Valencia, CA). cDNA was prepared from total RNA using the GoScript™ Reverse Transcription System (Promega). All quantitative reverse-transcription polymerase chain reaction (qPCR) was performed using the GoTaq® qPCR Master Mix System (Promega). The following validated primers were purchased from Qiagen: 18s ribosomal RNA (Rn18s; QT01036875), fatty acid binding protein 4 (Fabp4; QT00091532), Sp7 transcription factor 7 [Osterix (Sp7; QT00293181)]. qPCR was performed using a 7500 Fast Real-Time PCR System (Applied Biosystems, Carlsbad, CA). Relative gene expression was determined according to the Pfaffl method ([Pfaffl 2001]), with the threshold value for Rn18s used for normalization. […] The quantification cycle value from naive, undifferentiated cultures prepared from 9-week-old male mice was used as the reference point. Data are reported as fold difference from naive.

[10] = system: primary mouse bone marrow cultures; test: Alkaline phosphatase activity in primary bone marrow cultures; conditions: 12 days; FM550 at 5 μg/mL (10 μM)
[11] = system: BMS2 cells
[12] = system: estrogen receptor; parameters: method as in earlier work; conditions: ref Honkakoski et al. 2004; Kojima et al. 2013; Suzuki et al. 2013; cited from earlier work
[13] = system: constitutive androstane receptor; parameters: method as in earlier work; conditions: ref Honkakoski et al. 2004; Kojima et al. 2013; Suzuki et al. 2013; cited from earlier work
[14] = system: Sp7 mRNA in primary mouse bone marrow cultures; test: Sp7 (Osterix) mRNA expression (qPCR) in primary bone marrow cultures; assay type: cell-based; conditions: 7 days
Protocol: as §2

[15] = molecular target: human PPARγ1 (Homo sapiens, UniProt P37231); test: PPRE-luciferase reporter assay in Cos-7 cells transfected with human PPARG1 and RXRA; assay type: cell-based
Source text: Reporter assays. Cos-7 cells were transiently transfected with vectors containing human PPARG1 (provided by V.K. Chatterjee, University of Cambridge, Cambridge, UK) ([Gurnell et al. 2000]) and human RXRA (plasmid 8882; Addgene, Cambridge, MA) ([Tontonoz et al. 1994]), with PPRE x3-TK-luc (plasmid 1015; Addgene) ([Kim et al. 1998]) and CMV-eGFP reporter constructs using Lipofectamine2000 (Invitrogen). Cultures were cotransfected with either pcDNA3 (Invitrogen) or dominant negative human PPARG (PPARγ-DN; provided by V.K. Chatterjee). […] After 24 hr incubation, cells were lysed in Glo Lysis Buffer and mixed with Bright Glo reagent (both from Promega, Madison, WI). […] Luminescence was normalized by GFP (green fluorescent protein) fluorescence in the same well. The normalized luminescence for each well was then divided by the normalized luminescence measured in control DN-PPARγ–transfected wells to determine the fold-change from DN-control.

[16] = system: perilipin expression in BMS2 cells; test: Perilipin protein expression (immunoblot) in BMS2 cells; conditions: BMS2, 7 days
[17] = system: primary mouse bone marrow cultures; test: Mineralization (Alizarin red) in primary bone marrow cultures; conditions: 12 days; FM550 at 5 μg/mL (10 μM)
[18] = system: pregnane X receptor; parameters: method as in earlier work; conditions: ref Honkakoski et al. 2004; Kojima et al. 2013; Suzuki et al. 2013; cited from earlier work
[19] = system: BMS2 cells; conditions: 12 days; as high as 10 μg/mL (20 μM) FM550 or 20 μM TPP
Protocol: as §1

[20] = molecular target: T1, human recombinant PPARγ ligand binding domain (LBD) (Homo sapiens, UniProt P37231); test: biochemical; conditions: for binding to PPARγ LBD: over the concentration range tested (TBB 0.009–90 μM, TBPH 0.12–1,200 μM)
T1 construct: purchased Invitrogen
T1 sequence (P37231 238-503 limits assumed): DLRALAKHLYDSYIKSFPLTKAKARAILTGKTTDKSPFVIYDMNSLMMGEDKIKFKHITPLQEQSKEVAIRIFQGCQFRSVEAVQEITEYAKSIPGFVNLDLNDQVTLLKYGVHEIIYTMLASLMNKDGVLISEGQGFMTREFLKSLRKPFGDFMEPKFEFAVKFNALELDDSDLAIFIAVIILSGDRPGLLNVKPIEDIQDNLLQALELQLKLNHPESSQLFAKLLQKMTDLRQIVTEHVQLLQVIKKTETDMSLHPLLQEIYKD
Protocol: PPARγ ligand binding assay. Human PPARγ binding was quantified using the PolarScreen^TM PPARγ-Competitor Assay Kit (Invitrogen, Carlsbad, CA), according to the manufacturer’s instructions. […] Displacement of the fluorescent ligand, which has high polarization when bound to the PPARγ-LBD and low polarization when not bound, was assessed by measuring loss of fluorescence polarization using a SpectraMax M5 plate reader (Molecular Devices, Sunnyvale, CA). We calculated the IC50 (concentration required to reduce effect by 50%) and dissociation constants to compare the potency of the binding. Dissociation constants were calculated according to the following equation:
IC50/[PPARγ green] = Kd,ligand/Kd,probe,
where Kd,probe is the dissociation constant calculated from titration of 1.25 nM Fluormone™ PPARγ green with the PPARγ LBD.

[21] = parameters: method as in Patisaul et al. 2013; Roberts et al. 2012; conditions: in vivo and in vitro; ref Patisaul et al. 2013; Roberts et al. 2012; cited from earlier work

Sequence of human PPARγ1 (P19793 whole entry): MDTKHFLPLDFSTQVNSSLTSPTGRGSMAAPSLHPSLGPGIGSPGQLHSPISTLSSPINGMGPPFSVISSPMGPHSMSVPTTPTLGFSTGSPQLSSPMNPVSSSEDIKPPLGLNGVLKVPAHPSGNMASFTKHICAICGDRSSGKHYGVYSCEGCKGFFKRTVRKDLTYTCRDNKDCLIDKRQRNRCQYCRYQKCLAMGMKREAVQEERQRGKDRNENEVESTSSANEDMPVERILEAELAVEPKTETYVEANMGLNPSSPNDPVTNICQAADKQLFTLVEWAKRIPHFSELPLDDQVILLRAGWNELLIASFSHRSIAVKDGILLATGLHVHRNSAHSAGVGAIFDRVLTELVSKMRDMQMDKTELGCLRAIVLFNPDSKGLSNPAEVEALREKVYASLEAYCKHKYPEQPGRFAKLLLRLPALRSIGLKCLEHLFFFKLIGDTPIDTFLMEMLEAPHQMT
Sequence of human PPARγ1 (P37231 29-505): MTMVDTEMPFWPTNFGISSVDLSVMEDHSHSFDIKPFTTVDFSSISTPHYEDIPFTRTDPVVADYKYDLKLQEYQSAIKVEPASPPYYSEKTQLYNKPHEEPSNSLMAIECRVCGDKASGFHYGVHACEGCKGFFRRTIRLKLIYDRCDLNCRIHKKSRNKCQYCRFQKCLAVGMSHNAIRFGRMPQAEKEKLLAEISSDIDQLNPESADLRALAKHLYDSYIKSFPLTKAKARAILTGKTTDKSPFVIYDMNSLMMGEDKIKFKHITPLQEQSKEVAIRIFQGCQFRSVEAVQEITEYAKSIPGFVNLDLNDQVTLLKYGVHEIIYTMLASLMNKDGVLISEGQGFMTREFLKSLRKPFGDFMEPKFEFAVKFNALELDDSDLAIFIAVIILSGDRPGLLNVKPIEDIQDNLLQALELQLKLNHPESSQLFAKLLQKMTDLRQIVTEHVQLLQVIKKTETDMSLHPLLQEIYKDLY

In the case of `CCCCC(CC)COC(=O)c1c(Br)c(Br)c(Br)c(Br)c1C(=O)O` (centres unmarked) [mono-(2-ethylhexyl) tetrabromophthalate], the PPARγ-mediated gene transcription [1] is given as “activated”, the PPARα-mediated gene transcription [2] is given as “activated” and the adipocyte differentiation [3] is given as “induced adipocyte differentiation”.

In the case of `O=P(Oc1ccccc1)(Oc1ccccc1)Oc1ccccc1` [TPP, triphenyl phosphate], the “glucocorticoid receptor–mediated reporter activity” value [4] is listed as “antagonizing”, the “progesterone receptor–mediated reporter activity” value [5] is listed as “antagonizing” and the necrotic protein release [6] is listed as “no increase in necrotic protein release”. For the same compound, the maximal lipid accumulation ([7]; 7 days, naive-corrected, rosiglitazone at 1 μM) was 614 ± 60 RFUs, the “concentrations significantly inducing lipid accumulation” value ([7]; BMS2, 7 days, molar values of FM550 and ITP estimated) was ≥ 5 µM and the “concentration inducing lipid accumulation” value [8] was 10 µM. The “Fabp4 mRNA expression” value [9] was “significantly increased mRNA expression of Fabp4”, the alkaline phosphatase activity [10] was “significantly suppressed” and the “cellularity (MTT)” value ([11]; 24 hr, as high as 40 μg/mL (90 μM) FM550, 40 μM TPP, 40 μg/mL (100 μM) ITP) was “no loss of cellularity”. The “cellularity (MTT)” value ([11]; 7 days, as high as 20 μg/mL (50 μM) FM550, 20 μM TPP, 10 μg/mL (30 μM) ITP) was “no loss of cellularity”, the “cellularity (MTT)” value ([11]; 12 days, as high as 10 μg/mL (20 μM) FM550 or 20 μM TPP) was “no loss of cellularity” and the “estrogen receptor–mediated reporter activity” value [12] was “activating”. For the same compound, the “constitutive androstane receptor–mediated reporter activity” value [13] was “activating”, the “Sp7 mRNA expression” value [14] was “significant decrease in mRNA expression of Sp7” and the EC50 [15] was 8 µM. For the same compound, the “concentrations significantly inducing PPARγ-driven reporter activity” value ([15]; Cos7, 24 hr, molar values of FM550 and ITP estimated) was ≥ 10 µM, the “maximal PPARγ-driven reporter activity” value ([15]; fold-change from DN-control, 24 hr, rosiglitazone at 1 μM) was 7.5 ± 0.7 fold and the perilipin expression [16] was “induced the expression of perilipin”. For the same compound, the mineralization [17] was “significantly suppressed only alkaline phosphatase activity”, the “pregnane X receptor–mediated reporter activity” value [18] was “activating” and the caspase-3 activity [19] was “no increase in caspase-3 activity”. It also gave an IC50 [20] of 38 µM and a Kd [20] of 20 µM.

For `CCCCC(CC)COC(=O)c1cc(Br)c(Br)c(Br)c1Br` (centres unmarked) [TBB, tetrabromobenzoate], the “binding to PPARγ LBD” value [20] was “did not demonstrate any binding”.

For `CCCCC(CC)COC(=O)c1c(Br)c(Br)c(Br)c(Br)c1C(=O)OCC(CC)CCCC` (centres unmarked) [TBPH, bis-(2-ethylhexyl) tetrabromophthalate], the “metabolism into the monoester” value [21] is given as “minimally metabolized into the monoester” and the “binding to PPARγ LBD” value [20] is given as “did not demonstrate any binding”.
